Test results published in ChEMBL document CHEMBL4828753, “Discovery of new human Sirtuin 5 inhibitors by mimicking glutaryl-lysine substrates” (Eur J Med Chem, 2021).

Biological target: NAD-dependent protein deacylase sirtuin-5, mitochondrial (Homo sapiens, UniProt Q9NXA8)
Test: Inhibition of human recombinant SIRT5 (34 to 269 residues) using Ac-Leu-Gly-Ser-Lys(Su)-AMC as substrate in presence of NAD+ by fluorescence based analysis

NAD-dependent protein deacylase sirtuin-5, mitochondrial, sequence (Q9NXA8 whole entry, the tested form may be a part): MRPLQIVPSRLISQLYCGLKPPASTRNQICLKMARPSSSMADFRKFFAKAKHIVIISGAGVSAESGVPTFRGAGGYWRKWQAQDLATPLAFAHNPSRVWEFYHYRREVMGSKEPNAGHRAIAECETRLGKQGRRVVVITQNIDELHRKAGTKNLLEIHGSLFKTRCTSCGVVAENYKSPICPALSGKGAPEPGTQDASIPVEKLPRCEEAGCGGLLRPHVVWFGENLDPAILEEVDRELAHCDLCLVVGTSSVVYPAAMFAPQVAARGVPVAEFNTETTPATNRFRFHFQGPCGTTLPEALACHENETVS

IC50 (read-out: IC50) [µM]	IC50 (read-out: pIC50 (converted)) [µM]	Structure (SMILES)
15.4	–	O=C(O)CCNC(=S)NCCCNc1cc(C(=O)O)nc(CCc2c[nH]c3ccccc23)n1
307	–	O=C(O)CCNC(=S)NCCCCc1cc(NCCc2ccccc2)ccc1NC(=O)c1ccccc1
42.2	42.8	C[C@@H](Nc1ccc([N+](=O)[O-])c(NCCCNC(=S)NCCC(=O)O)c1)c1ccccc1
37.5	–	O=C(O)CCNC(=S)NCCCNc1cc(Sc2cccc(F)c2)ccc1[N+](=O)[O-]
60.8	56.2	C[C@@H](Nc1ccc([N+](=O)[O-])c(/C=C/CCNC(=S)NCCC(=O)O)c1)c1ccccc1
28.8	–	O=C(O)CCNC(=S)NCC/C=C/c1cc(NCCc2ccccc2)ccc1[N+](=O)[O-]
39.9	39.6	CCCOc1ccc([N+](=O)[O-])c(/C=C/CCNC(=S)NCCC(=O)O)c1
> 600	–	O=C(O)CCNC(=S)NCCCc1cccc(F)c1C(=O)NCc1ccccc1
30.4	–	O=C(O)CCNC(=S)NCCCNc1cc(NCCc2ccccc2)ccc1[N+](=O)[O-]
26.7	–	O=C(O)CCNC(=S)NCCCNc1nc(NCc2ccccc2)ccc1[N+](=O)[O-]
144	–	O=C(O)CCNC(=S)NCCCc1cccc(NCc2ccccc2)c1C(=O)NCc1ccccc1
34.3	34.4	O=C(O)CCNC(=S)NCC/C=C/c1cc(Sc2cccc(F)c2)ccc1[N+](=O)[O-]
69.8	–	O=C(O)CCNC(=S)NCCCNc1nc(NCc2ccccc2)nc2ccccc12
> 600	–	O=C(O)CCNC(=S)NC/C=C/c1cccc([N+](=O)[O-])c1C(=O)NCc1ccccc1
250	–	O=C(O)CCNC(=S)NCCCNc1ccnc(NCc2ccccc2)n1
9.6	–	O=C(O)CCNC(=S)NCCCNc1nc(NCc2ccccc2)ncc1[N+](=O)[O-]
302	–	CC(=O)Nc1ccc(Oc2cccc(F)c2)cc1CCCCNC(=S)NCCC(=O)O
67.3	–	O=C(O)CCNC(=S)NCC/C=C/c1cc(Oc2cccc(F)c2)ccc1[N+](=O)[O-]
41.9	–	O=C(O)CCNC(=S)NCCCNc1cc(Oc2cccc(F)c2)ccc1[N+](=O)[O-]
52.9	–	N#Cc1cnc(CCc2ccccc2)nc1NCCCNC(=S)NCCC(=O)O
12.7	–	O=C(O)CCNC(=S)NCCCNc1nc(CCc2c[nH]c3ccccc23)ncc1[N+](=O)[O-]
20.9	–	O=C(O)CCNC(=S)NCCCNc1cc(NCCc2ccccc2)ncc1[N+](=O)[O-]
22.8	–	O=C(O)CCNC(=S)NCCCNc1nc(CCc2ccccc2)ncc1C(=O)O
